Measured values reported in US20260355168A1, “COMPOSITIONS AND METHODS FOR TREATING AND DETECTING CANCER” (CASE WESTERN RESERVE UNIVERSITY, priority 2022, published 2026).
“Also recorded” adds a separate entry of the source.

Key:
PTPμ = PTPμ (Homo sapiens, UniProt P28827); assay: PTPμ-dependent Sf9 aggregation assay; assay type: cell-based; conditions: 100 μM; 20 min pretreatment; in words
glioma cells = assay: Glioma cell assays combined (scratch and sphere, several cell lines); assay type: cell-based, human; conditions: 100 μM; for Effect on glioma cells, overall: multiple assays and cell lines; for Effect on glioma cell migration: scratch assays
Method: FIG. 2 illustrates a schematic of a functional screening approach. Seventy-four PTPμ wedge-targeted compounds and 2 blinded DMSO samples were received from Atomwise and screened at 100 μM in scratch wound healing assays using two glioma cell lines (LN229 and U87). Selected active and control compounds were taken into secondary assays (Gli36 scratch and LN229 and Gli36 sphere formation and growth assays). Inhibitors selected as being active in primary and secondary screens were tested for effects on the survival of LN229 and Sf9 cells, and selected glioma-cell inhibitors and activators were screened for effects on Sf9-PTPμ aggregation, a highly specific test for PTPμ function.
Cells were seeded at a density of 2.7×10^4 cells per well into the internal wells of Incuyte1 Imagelock 96-well plates (Essen BioScience Inc., Ann Arbor, MI) and cultured overnight to form monolayers. Monolayers were wounded with an IncuCyte1 96-well Woundmaker Tool per the manufacturer's instructions. The outer wells were filled with PBS to buffer edge effects, and then the wounded monolayers were cultured in 100 μl of fresh media with compounds or DMSO (2×replicates at 100 μM or 1%, respectively) at 37 °C and 5% CO2. Images were captured every 4 hrs. using an Incucyte live cell imaging system equipped with the Scratch Wound Module. Scratch wound widths were calculated, per the manufacturer's instructions, at TO and at endpoint (typically T12 for LN229 and U87 cells and T8 for Gli36), which was taken as the last timepoint before wound closure. The cell migration distance was calculated from scratch widths [(T0Width−TendpointWidth)/2] and normalized to the average distance migrated by the DMSO controls. Values are presented as average percentages±standard errors of the means (s.e.m.). The majority of compounds were screened with an n of two, but the n for priority hits ranges from 2-6.
(§1) Cells were seeded at a density of 7500 cells per well into the internal wells of 96-well plates coated with 0.75% (wt/vol) PVA as previously described. Compounds were added (2×replicates per treatment) at the indicated final concentrations, and control wells were treated with matching concentrations of DMSO. The external wells of the plates were filled with PBS to buffer against edge effects, and the cells were incubated at 37 °C and 5% CO2 for 7 days. A Leica CTR6500 microscope fitted with an automated stage was used to capture brightfield images on day 1 and day 7, and sphere footprint areas were measured using Image J (v1.52a http://imagej.nih.gov/ij) as previously described. To quantify the effects of the compounds on day 1, the footprint areas of the treated wells were normalized to the average area of the matched DMSO control wells. To quantify the effects of the compounds on sphere growth, the change in the sphere footprint areas was calculated ([…]) and then normalized to the average size change of the matched DMSO samples. All values are presented as average percentages±s.e.m.

LN229 cells [1] = assay: LN229 glioma sphere formation and growth assay; assay type: cell-based, human; conditions: for Effect on LN229 sphere formation: day 1; for Effect on LN229 sphere formation / Effect on LN229 sphere growth: in words
Method: FIGS. 5(A-E) illustrate a histogram and images showing the results of the LN229 sphere formation and growth assays. Selected inhibitors, activators, and control compounds identified in LN229 and/or U87 scratch wound closure assays were retested at 100 μM in a secondary assay for glioma cell (LN229) sphere formation and growth. A. Histogram showing the effects of the indicated compounds on sphere formation. On day 1, sphere footprint areas were determined and normalized to the average footprint area of the unblinded vehicle-treated controls. On day 1, a larger footprint area indicates inhibition of aggregation. B. Histogram showing the effects of the indicated compounds on sphere growth. On day 7, the changes in sphere footprint areas were calculated and normalized to the average size change of the unblinded vehicle-treated controls. On day 7, a smaller value indicates reduced growth. […] Data is presented as percentages±s.e.m. of 2-4 replicates. Representative images of samples treated with DMSO (C) and two priority inhibitors (D and E) are shown. Relative day 1 footprint areas and day 7 growth measurements are indicated for each example.
FIGS. 15(A-D) illustrate a histogram and images of titration of selected compounds on LN229 sphere formation and growth. LN229 cells were plated onto non-adherent surfaces and treated with the indicated compounds at 100, 50, and 25 μM. A. On day 1, sphere footprint areas were determined and normalized to the average footprint area of the unblinded vehicle-treated controls. On day 1, a larger foot-print area indicates inhibition of aggregation. B. On day 7, the changes in sphere footprint areas were calculated and normalized to the average size change of the unblinded vehicle-treated controls. On day 7, a smaller value indicates reduced growth. […] Data is presented as percentages±s.e.m. The initial test at 100 μM and the follow-up at that dose with titration is shown. Each bar is the average of 2 replicates. Representative day 1 (C) and day 7 (D) images of samples treated with two priority inhibitors are shown. Relative day 1 sphere footprint areas and day 7 growth for each example are indicated.
as §1
We tested the effects of twenty-four compounds (11 flagged as inhibitory, 4 as stimulatory, and nine as inert in the initial scratch-wound screen, FIG. 2) on the ability of LN229 cells to mediate cell-cell adhesion and grow in 3D culture on non-adherent surfaces. To quantify sphere formation (FIG. 5A), the footprint areas of aggregates were measured on day 1 and normalized to that of the DMSO control. At this time point, a larger footprint size (>120%) indicates inhibition, i.e., the failure of cells to form a compact aggregate. To quantify sphere growth (FIG. 5B), we calculated the percent changes in sphere footprint areas between day 1 and day 7 and normalized them to that of the DMSO controls.

LN229 cells [2] = assay: Helix Blue staining of LN229 spheres (cell survival); assay type: cell-based, human; conditions: 100 μM, 24 h, qualitative
Method: FIG. 17 illustrates images showing the effects of prioritized inhibitors on cell survival. LN229 cells were plated onto non-adherent surfaces and cultured in the presence of the indicated compounds (100 μM). On day 1, spheres were stained with Helix Blue to detect dying cells. Parental Sf9 cells (which lack PTPμ) plated onto tissue culture plastic were also grown in the presence of the indicated compounds and, on day 1, stained with Helix Blue. Three compounds appeared to cause a qualitative increase in staining in LN229 spheres. No compound was toxic to Sf9 cells.
LN229 cells, plated onto non-adherent surfaces as described above, and parental Sf9 cells (without PTPμ), seeded into 96-well flat bottom tissue culture plates, were treated for 24 h with the indicated compounds (100 μM). The cells and spheres were then treated with 5.5 μM Helix Blue (Biolegend, San Diego, CA) and imaged at 10× on a Leica CTR6500 fluorescence microscope.
The seven penetrant inhibitors were tested to see if they affected the survival of LN229 spheres and parental Sf9 cells (which lack PTPμ) (FIG. 17).

PTPμ, sequence (P28827 21-1452): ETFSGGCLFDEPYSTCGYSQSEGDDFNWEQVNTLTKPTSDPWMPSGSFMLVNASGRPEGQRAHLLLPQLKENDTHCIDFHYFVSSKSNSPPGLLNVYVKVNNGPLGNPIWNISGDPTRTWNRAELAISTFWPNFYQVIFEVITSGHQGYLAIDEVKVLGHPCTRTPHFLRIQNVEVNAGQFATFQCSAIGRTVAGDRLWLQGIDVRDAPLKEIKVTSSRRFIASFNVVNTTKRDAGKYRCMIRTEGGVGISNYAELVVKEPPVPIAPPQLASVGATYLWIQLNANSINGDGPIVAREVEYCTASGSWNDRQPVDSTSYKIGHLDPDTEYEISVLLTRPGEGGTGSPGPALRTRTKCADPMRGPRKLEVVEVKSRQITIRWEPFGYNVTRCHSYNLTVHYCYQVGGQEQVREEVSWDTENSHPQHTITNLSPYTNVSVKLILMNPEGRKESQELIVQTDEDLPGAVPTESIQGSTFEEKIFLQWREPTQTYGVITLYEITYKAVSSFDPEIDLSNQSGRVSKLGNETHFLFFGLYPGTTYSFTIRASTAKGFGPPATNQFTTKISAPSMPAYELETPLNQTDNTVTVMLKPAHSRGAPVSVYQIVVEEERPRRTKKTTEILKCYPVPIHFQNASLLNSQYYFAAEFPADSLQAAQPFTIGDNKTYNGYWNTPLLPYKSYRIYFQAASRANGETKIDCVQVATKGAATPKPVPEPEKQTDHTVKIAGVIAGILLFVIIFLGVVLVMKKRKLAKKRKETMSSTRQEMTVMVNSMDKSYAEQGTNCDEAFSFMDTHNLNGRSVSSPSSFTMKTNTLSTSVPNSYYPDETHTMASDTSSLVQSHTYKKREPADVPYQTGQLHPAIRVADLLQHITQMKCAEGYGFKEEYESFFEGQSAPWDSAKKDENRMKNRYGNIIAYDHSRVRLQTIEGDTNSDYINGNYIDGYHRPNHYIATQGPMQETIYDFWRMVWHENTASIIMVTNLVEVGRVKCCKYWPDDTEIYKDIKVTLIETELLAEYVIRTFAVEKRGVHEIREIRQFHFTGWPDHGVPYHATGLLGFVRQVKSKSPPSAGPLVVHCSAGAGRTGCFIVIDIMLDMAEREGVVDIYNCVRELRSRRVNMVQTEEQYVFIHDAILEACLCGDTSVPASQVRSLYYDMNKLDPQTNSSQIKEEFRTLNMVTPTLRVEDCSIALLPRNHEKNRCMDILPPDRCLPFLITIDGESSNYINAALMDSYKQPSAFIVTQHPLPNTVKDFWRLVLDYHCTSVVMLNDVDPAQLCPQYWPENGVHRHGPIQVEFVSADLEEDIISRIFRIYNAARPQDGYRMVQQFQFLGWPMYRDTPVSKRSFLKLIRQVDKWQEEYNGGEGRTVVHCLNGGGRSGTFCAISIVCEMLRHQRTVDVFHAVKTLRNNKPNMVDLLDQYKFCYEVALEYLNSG

Row | SMILES | Effect on PTPμ-dependent Sf9 aggregation / adhesion (PTPμ) | Effect on glioma cells, overall (glioma cells) | Effect on glioma cell migration (glioma cells) | Effect on LN229 sphere formation (LN229 cells [1]; 50 μM) | Effect on LN229 sphere formation (LN229 cells [1]; 100 μM) | Effect on LN229 sphere growth (LN229 cells [1]; 100 μM, day 7) | sphere growth relative to control at 100 µM (LN229 cells [1]; Homo sapiens, LN-229, 168 h, read-out: LN229 sphere growth relative to control (threshold for inhibition), heading: LN229 sphere growth relative to control, 100 μM, day 7) [%] | Effect on LN229 cell survival / cell death (LN229 cells [2]) | Effect on LN229 sphere growth (LN229 cells [1]; 50 μM, day 7) | minimal effective concentration (LN229 cells [1]; Homo sapiens, LN-229, titration 100, 50, 25 μM, read-out: Lowest dose effective at inhibiting LN229 sphere growth) [µM]
1 | O=C(NCc1nc(-c2ccncc2)no1)c1ccc(Cl)c(S(=O)(=O)NCc2ccccc2)c1 [Compound 247678791] | PTPμ-dependent adhesion; also recorded: inhibitors; also recorded: fewer/smaller aggregates; also recorded: affect PTPμ-mediated aggregation | highly penetrant inhibitors; also recorded: able to inhibit glioma cells | able to inhibit glioma cell migration | slowed aggregation at 100 and 50 μM | aggregated more slowly than controls; also recorded: slowed aggregation at 100 and 50 μM | grew poorly in 3D culture | < 60 | did not affect LN229 survival |  | 
2 | CCN(C(=O)CN1C(=O)NC(C)(CCC(C)C)C1=O)c1cccc2ccccc12 (centres unmarked) [Compound 247677616] | not shown to affect PTPμ-mediated aggregation; also recorded: did not affect PTPμ-dependent adhesion | highly penetrant inhibitors in glioma cell assays |  |  | completely blocked sphere formation |  |  | caused a qualitative increase in LN229-cell death; also recorded: causing LN229 cell death |  | 
3 | COc1cc(C)ccc1OCC(=O)Nc1nc(-c2c[nH]c(C(N)=O)c2)cs1 [Compound 247678835] | PTPμ-dependent adhesion; also recorded: inhibitors; also recorded: fewer/smaller aggregates; also recorded: strongest pan-inhibitor to affect PTPμ-dependent aggregation; also recorded: affect PTPμ-mediated aggregation | highly penetrant inhibitors; also recorded: able to inhibit glioma cells | able to inhibit glioma cell migration | condensation was slowed | failed to compact and formed a mat of cells at the bottom of the well; also recorded: dramatically disrupted sphere formation at 100 μM |  |  | caused a qualitative increase in LN229-cell death; also recorded: induced LN229-cell death in vitro; also recorded: affect the survival of LN229 cells | grew poorly in culture | 50
